Laboratory results published in US20100056516A1 (priority 2006, published 2010).

How the values were obtained:
HIV integrase = HIV integrase (Human immunodeficiency virus type 1 group M subtype B, UniProt P04585); assay: integrase strand transfer assay (STA); assay type: biochemical; details: integrase strand transfer; read-out: IC50 in the STA assay
HXB2 virus = assay: microbe, parasite or virus in culture; assay type: cell-based, HIV; details: Human immunodeficiency virus 1, HXB2, HeLaP4-2, read-out: antiviral IC50 (SCIA-B)
Outline: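 Single-cycle infectivity assay in HeLa P4-2 cells measuring inhibition of acute HIV infection, using HXB2 virus.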

Row | SMILES | IC50 (HIV integrase) [µM] | IC50 (HXB2 virus) [µM]
1 | COc1ccc(-c2ccncc2)cc1-c1cc(=O)n(O)c2ncccc12 [Example 185, 1-hydroxy-4-(2-methoxy-5-pyridin-4-ylphenyl)-1,8-naphthyridin-2(1H)-one] | < 50 | < 100
2 | O=c1cc(-c2ccc3cc[nH]c3c2)c2cccnc2n1O [Example 186, 1-hydroxy-4-(1H-indol-6-yl)-1,8-naphthyridin-2(1H)-one] | < 50 | < 100
3 | COC(=O)CCc1cccc(-c2cccc(-c3cc(=O)n(O)c4ncccc34)c2)c1 [Example 187, methyl-3-[3′-(1-hydroxy-2-oxo-1,2-dihydro-1,8-naphthyridin-4-yl)biphenyl-3-yl]-propanoate] | < 50 | < 100
4 | O=c1cc(-c2ccc(-c3ccn[nH]3)cc2)c2cccnc2n1O [Example 188, 1-hydroxy-4-[4-(1H-pyrazol-5-yl)phenyl]-1,8-naphthyridin-2(1H)-one] | < 50 | < 100
5 | CS(=O)(=O)NCc1ccc(-c2cc(=O)n(O)c3ncccc23)cc1 [Example 189, N-[4-(1-hydroxy-2-oxo-1,2-dihydro-1,8-naphthyridin-4-yl)benzyl]methanesulfo-namide] | < 50 | < 100
6 | NCc1cccc(-c2cncc(-c3cc(=O)n(O)c4ncccc34)c2)c1 [Example 190, 4-{5-[3-(aminomethyl)phenyl]pyridin-3-yl}-1-hydroxy-1,8-naphthyridin-2(1H)one] | < 50 | < 100
7 | CC(=O)c1cccc(-c2cccc(-c3cc(=O)n(O)c4ncccc34)c2)c1 [Example 191, 4-(3′-acetylbiphenyl-3-yl)-1-hydroxy-1,8-naphthyridin-2(1H)-one] | < 50 | < 100
8 | NS(=O)(=O)c1cccc(-c2cc(=O)n(O)c3ncccc23)c1 [Example 192, 3-(1-hydroxy-2-oxo-1,2-dihydro-1,8-naphthyridin-4-yl)benzenesulfonamide] | < 50 | < 100
9 | CNS(=O)(=O)c1cccc(-c2cc(=O)n(O)c3ncccc23)c1 [Example 193, 3-(1-hydroxy-2-oxo-1,2-dihydro-1,8-naphthyridin-4-yl)-N-methylbenzenesulfona-mide] | < 50 | < 100
10 | CC(=O)Nc1cccc(-c2cc(=O)n(O)c3ncccc23)c1 [Example 194, N-[3-(1-hydroxy-2-oxo-1,2-dihydro-1,8-naphthyridin-4-yl)phenyl]acetamide] | < 50 | < 100
11 | O=C(c1cccc(-c2cc(=O)n(O)c3ncccc23)c1)N1CCCC1 [Example 195, 1-hydroxy-4-[3-(pyrrolidin-1-ylcarbonyl)phenyl]-1,8-naphthyridin-2(1H)-one] | < 50 | < 100
12 | NC(=O)c1cccc(-c2cc(=O)n(O)c3ncccc23)c1 [Example 196, 3-(1-hydroxy-2-oxo-1,2-dihydro-1,8-naphthyridin-4-yl)benzamide] | < 50 | < 100
13 | O=c1cc(-c2cncnc2)c2cccnc2n1O [Example 197, 1-hydroxy-4-pyrimidin-5-yl-1,8-naphthyridin-2(1H)-one] | < 50 | < 100
14 | O=c1cc(-c2ccn[nH]2)c2cccnc2n1O [Example 198, 1-hydroxy-4-(1H-pyrazol-5-yl)-1,8-naphthyridin-2(1H)-one] | < 50 | < 100
15 | CS(=O)(=O)c1cccc(-c2cc(=O)n(O)c3ncccc23)c1 [Example 199, 1-hydroxy-4-[3-(methylsulfonyl)phenyl]-1,8-naphthyridin-2(1H)-one] | < 50 | < 100
16 | O=c1cc(-c2ccc(NCCN3CCOCC3)nc2)c2cccnc2n1O [Example 200, 1-hydroxy-4-{6-[(2-morpholin-4-ylethyl)amino]pyridin-3-yl}-1,8-naphthyridin-2(1H)-one] | < 50 | < 100
17 | CS(=O)(=O)Nc1ccccc1-c1cc(=O)n(O)c2ncccc12 [Example 201, N-[2-(1-hydroxy-2-oxo-1,2-dihydro-1,8-naphthyridin-4-yl)phenyl]methanesulfo-namide] | < 50 | < 100
18 | N#Cc1cccc(-c2cccc(-c3cc(=O)n(O)c4ncccc34)c2)c1 [Example 202, 3′-(1-hydroxy-2-oxo-1,2-dihydro-1,8-naphthyridin-4-yl)biphenyl-3-carbonitrile] | < 50 | < 100
19 | O=c1cc(-c2ccncc2)c2cccnc2n1O [Example 203, 1-hydroxy-4-pyridin-4-yl-1,8-naphthyridin-2(1H)-one] | < 50 | < 100
20 | NCc1cccc(-c2cccc(-c3cc(=O)n(O)c4ncccc34)c2)c1 [Example 204, 4-[3′-(aminomethyl)biphenyl-3-yl]-1-hydroxy-1,8-naphthyridin-2(1H)-one] | < 50 | < 100

Row | SMILES | IC50 (HIV integrase) [µM] | IC50 (HXB2 virus) [µM]
21 | O=c1cc(-c2cccc(-c3cccc(CNCc4ccccc4)c3)c2)c2cccnc2n1O [Example 205, 4-{3′-[(benzylamino)methyl]biphenyl-3-yl}-1-hydroxy-1,8-naphthyridin-2(H)-one] | < 50 | < 100
22 | O=c1cc(-c2cccc(CN3CCN(Cc4ccccc4)CC3)c2)c2cccnc2n1O [Example 206, 4-{3-[(4-benzyl-1-piperazinyl)methyl]phenyl}-1-hydroxy-1,8-naphthyridin-2(1H-one)] | < 50 | < 100
23 | O=c1cc(-c2cccc(CN3CCN(C(c4ccccc4)c4ccc(Cl)cc4)CC3)c2)c2cccnc2n1O (stereo not drawn) [Example 207] | < 50 | < 100
24 | O=C(CN1CCN(Cc2cccc(-c3cc(=O)n(O)c4ncccc34)c2)CC1)N1CCCC1 [Example 208, 1-hydroxy-4-[3-({4-[2-oxo-2-(1-pyrrolidinyl)ethyl]-1-piperazinyl}methyl)phenyl]-1,8-naphthyridin-2(1H-one)] | < 50 | < 100
25 | CN(C)C(=O)CNCc1cccc(-c2cc(=O)n(O)c3ncccc23)c1 [Example 209, 2-{[3-(1-hydroxy-2-oxo-1,2-dihydro-1,8-naphthyridin-4-yl)benzyl]amino}-N,N-dimethylacetamide] | < 50 | < 100
26 | CC(c1ccccc1)N1CCN(Cc2cccc(-c3cc(=O)n(O)c4ncccc34)c2)CC1 (stereo not drawn) [Example 210, 1-hydroxy-4-(3-{[4-(1-phenylethyl)-1-piperazinyl]methyl}phenyl)-1,8-naphthyridin-2(1H-one)] | < 50 | < 100
27 | O=C(CN1CCN(Cc2cccc(-c3cc(=O)n(O)c4ncccc34)c2)CC1)N1CCOCC1 [Example 211, 1-hydroxy-4-[3-({4-[2-(4-morpholinyl)-2-oxoethyl]-1-piperazinyl}methyl)phenyl]-1,8-naphthyridin-2(1H-one)] | < 50 | < 100
28 | CN(C)CCCN1CCN(Cc2cccc(-c3cc(=O)n(O)c4ncccc34)c2)CC1 [Example 212, 4-[3-({4-[3-(dimethylamino)propyl]-1-piperazinyl}methyl)phenyl]-1-hydroxy-1,8-naphthyridin-2(1H-one)] | < 50 | < 100
29 | CC(=O)N1CCN(Cc2cccc(-c3cc(=O)n(O)c4ncccc34)c2)CC1 [Example 213, 4-{3-[(4-acetyl-1-piperazinyl)methyl]phenyl}-1-hydroxy-1,8-naphthyridin-2(1H-one)] | < 50 | < 100
30 | CN(C(=O)c1c(O)c2cccnc2n(O)c1=O)C1CCNC1 (stereo not drawn) [Example 215, 1,4-Dihydroxy-N-methyl-2-oxo-N-pyrrolidin-3-yl-1,2-dihydro-1,8-naphthyridine-3-carboxamide] | < 50 | < 100
31 | CN1C(=O)c2c(c3cccnc3n(O)c2=O)NC1c1ccccc1 (stereo not drawn) [Example 216, 6-Hydroxy-3-methyl-2-phenyl-2,3-dihydropyrimido[5,4-c]-1,8-naphthyridine-4,5(1H, 6H)-dione] | < 50 | < 100
32 | CN1C(=O)c2c(c3cccnc3n(O)c2=O)NC1c1ccccc1-c1ccccc1 (stereo not drawn) [Example 217, 2-Biphenyl-2-yl-6-hydroxy-3-methyl-2,3-dihydropyrimido[5,4-c]-1,8-naphthyridine-4,5(1H, 6H)dione] | < 50 | < 100
33 | CN1C(=O)c2c(c3cccnc3n(O)c2=O)NC1c1cccc(Oc2ccccc2)c1 (stereo not drawn) [Example 218, 6-Hydroxy-3-methyl-2-(3-phenoxyphenyl)-2,3-dihydropyrimido[5,4-c]-1,8-naphthyridine-4,5(1H, 6H)dione] | < 50 | < 100
34 | CN1C(=O)c2c(c3cccnc3n(O)c2=O)NC1c1cccc(CN2CCOCC2)c1 (stereo not drawn) [Example 219, 6-Hydroxy-3-methyl-2-[3-(morpholin-4-ylmethyl)phenyl]-2,3-dihydropyrimido[5,4-c]-1,8-naphthyridine-4,5(1H, 6H)dione] | < 50 | < 100
35 | CN1C(=O)c2c(c3cccnc3n(O)c2=O)NC1c1cccc(CN)c1 (stereo not drawn) [Example 220, 2-[3-(Aminomethyl)phenyl]-6-hydroxy-3-methyl-2,3-dihydropyrimido[5,4-c]-1,8-naphthyridine-4,5(1H, 6H)dione] | < 50 | < 100
36 | CNC(=O)c1c(N)c2cccnc2n(O)c1=O [Example 221, 4-Amino-1-hydroxy-N-methyl-2-oxo-1,2-dihydro-1,8-naphthyridine-3-carboxamide] | < 50 | < 100
37 | CCOC(=O)Cc1c(O)c2cccnc2n(O)c1=O [Example 223, Ethyl (1,4-dihydroxy-2-oxo-1,2-dihydro-1,8-naphthyridin-3-yl)acetate] | < 50 | < 100
38 | NCc1cccc(CNC(=O)Cc2c(O)c3cccnc3n(O)c2=O)c1 [Example 224] | < 50 | < 100
39 | O=c1cc(O)c2c(-c3cccc(O)c3)ccnc2n1O [Example 226, 1,4-dihydroxy-5-(3-hydroxyphenyl)-1,8-naphthyridin-2(1H)-one] | < 50 | < 100
